Reference: PubChem BioAssay (NCI)
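A five-concentration, 48-hour dose response in 96-well plates underlies each endpoint, interpolated linearly between surrounding concentrations. TGI marks complete inhibition of growth.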

What was measured:
Assay in all cases: NCI tumour cell line growth inhibition, 48 h
RXF 393 renal = tested on: RXF 393 renal
NCI-H226 lung = tested on: NCI-H226 lung
SF-268 CNS = tested on: SF-268 CNS
A498 renal = tested on: A498 renal
CAKI-1 renal = tested on: CAKI-1 renal
DMS 273 small cell lung = tested on: DMS 273 small cell lung
HCT-116 colon = tested on: HCT-116 colon
SNB-75 CNS = tested on: SNB-75 CNS
RXF-631 renal = tested on: RXF-631 renal
COLO 205 colon = tested on: COLO 205 colon
U251 CNS = tested on: U251 CNS
SF-539 CNS = tested on: SF-539 CNS
UACC-62 melanoma = tested on: UACC-62 melanoma
M14 melanoma = tested on: M14 melanoma
SF-295 CNS = tested on: SF-295 CNS
786-0 renal = tested on: 786-0 renal
XF 498 CNS = tested on: XF 498 CNS
SR leukemia = tested on: SR leukemia
ACHN renal = tested on: ACHN renal
A549 NSCLC = tested on: A549 NSCLC
OVCAR-4 ovarian = tested on: OVCAR-4 ovarian
SNB-78 CNS = tested on: SNB-78 CNS
NCI-H460 lung = tested on: NCI-H460 lung
MOLT-4 leukemia = tested on: MOLT-4 leukemia
SW-620 colon = tested on: SW-620 colon
M19-MEL melanoma = tested on: M19-MEL melanoma
DLD-1 colon = tested on: DLD-1 colon
EKVX NSCLC = tested on: EKVX NSCLC
OVCAR-5 ovarian = tested on: OVCAR-5 ovarian
LXFL 529 NSCLC = tested on: LXFL 529 NSCLC
RPMI-8226 leukemia = tested on: RPMI-8226 leukemia
SNB-19 CNS = tested on: SNB-19 CNS
TK-10 renal = tested on: TK-10 renal
SK-MEL-2 melanoma = tested on: SK-MEL-2 melanoma
DMS 114 small cell lung = tested on: DMS 114 small cell lung
OVCAR-3 ovarian = tested on: OVCAR-3 ovarian
KM12 colon = tested on: KM12 colon
SK-MEL-28 melanoma = tested on: SK-MEL-28 melanoma
LOX IMVI melanoma = tested on: LOX IMVI melanoma
UACC-257 melanoma = tested on: UACC-257 melanoma
HOP-18 NSCLC = tested on: HOP-18 NSCLC
UO-31 renal = tested on: UO-31 renal
HOP-92 NSCLC = tested on: HOP-92 NSCLC
NCI-H23 lung = tested on: NCI-H23 lung
SK-OV-3 ovarian = tested on: SK-OV-3 ovarian
HT29 colon = tested on: HT29 colon
IGROV1 ovarian = tested on: IGROV1 ovarian
HOP-62 NSCLC = tested on: HOP-62 NSCLC
MALME-3M melanoma = tested on: MALME-3M melanoma
OVCAR-8 ovarian = tested on: OVCAR-8 ovarian
NCI-H522 lung = tested on: NCI-H522 lung
SK-MEL-5 melanoma = tested on: SK-MEL-5 melanoma
SN12C renal = tested on: SN12C renal
HCC-2998 colon = tested on: HCC-2998 colon
KM20L2 colon = tested on: KM20L2 colon
K-562 leukemia = tested on: K-562 leukemia
CCRF-CEM leukemia = tested on: CCRF-CEM leukemia
HL-60(TB) leukemia = tested on: HL-60(TB) leukemia
HCT-15 colon = tested on: HCT-15 colon

CC1=C(/C=C/C2=CC(=C\C(=O)O)/CC(C3=C(C)CCCC3(C)C)C2)C(C)(C)CCC1 (stereo not given)
TGI (RXF 393 renal): 22.6 µM
TGI (NCI-H226 lung): 23.9 µM
TGI (SF-268 CNS): 36.1 µM
TGI (A498 renal): 28.7 µM
TGI (CAKI-1 renal): 29.5 µM
TGI (DMS 273 small cell lung): 27.7 µM
TGI (HCT-116 colon): 37 µM
TGI (SNB-75 CNS): 28.8 µM
TGI (RXF-631 renal): 24.7 µM
TGI (COLO 205 colon): 30.7 µM
TGI (U251 CNS): 23.1 µM
TGI (SF-539 CNS): 30.6 µM
TGI (UACC-62 melanoma): 23.1 µM
TGI (M14 melanoma): 28.5 µM
TGI (SF-295 CNS): 22 µM
TGI (786-0 renal): 28.4 µM
TGI (XF 498 CNS): 27.4 µM
TGI (SR leukemia): 24.2 µM
TGI (ACHN renal): 22.2 µM
TGI (A549 NSCLC): 19.6 µM
TGI (OVCAR-4 ovarian): 28.1 µM
TGI (SNB-78 CNS): 41.2 µM
TGI (NCI-H460 lung): 27.8 µM
TGI (MOLT-4 leukemia): 21.7 µM
TGI (SW-620 colon): 29.1 µM
TGI (M19-MEL melanoma): 30.6 µM
TGI (DLD-1 colon): 24.5 µM
TGI (EKVX NSCLC): 23.4 µM
TGI (OVCAR-5 ovarian): 29.9 µM
TGI (LXFL 529 NSCLC): 26.8 µM
TGI (RPMI-8226 leukemia): 27 µM
TGI (SNB-19 CNS): 27.7 µM
TGI (TK-10 renal): 27.3 µM
TGI (SK-MEL-2 melanoma): 23.5 µM
TGI (DMS 114 small cell lung): 23 µM
TGI (OVCAR-3 ovarian): 27.1 µM
TGI (KM12 colon): 24.1 µM
TGI (SK-MEL-28 melanoma): 29.5 µM
TGI (LOX IMVI melanoma): 27.6 µM
TGI (UACC-257 melanoma): 29.5 µM
TGI (HOP-18 NSCLC): 27 µM
TGI (UO-31 renal): 22.5 µM
TGI (HOP-92 NSCLC): 23.7 µM
TGI (NCI-H23 lung): 27.6 µM
TGI (SK-OV-3 ovarian): 27.7 µM
TGI (HT29 colon): 28.6 µM
TGI (IGROV1 ovarian): 26.4 µM
TGI (HOP-62 NSCLC): 27 µM
TGI (MALME-3M melanoma): 34.1 µM
TGI (OVCAR-8 ovarian): 27.8 µM
TGI (NCI-H522 lung): 22.7 µM
TGI (SK-MEL-5 melanoma): 28 µM
TGI (SN12C renal): 32.3 µM

O=C(c1cc2c(C(F)(F)F)onc2c2ccccc12)C(F)(F)F
TGI (RXF 393 renal): 17.4 µM
TGI (NCI-H226 lung): 13.5 µM
TGI (SF-268 CNS): 19.9 µM
TGI (HCC-2998 colon): 60.4 µM
TGI (A498 renal): 34.9 µM
TGI (CAKI-1 renal): 20.9 µM
TGI (DMS 273 small cell lung): 16.1 µM
TGI (HCT-116 colon): 1.03 µM
TGI (SNB-75 CNS): 15.4 µM
TGI (RXF-631 renal): 80.1 µM
TGI (COLO 205 colon): 9.11 µM
TGI (U251 CNS): 4.76 µM
TGI (SF-539 CNS): 15.8 µM
TGI (UACC-62 melanoma): 17 µM
TGI (M14 melanoma): > 58.6 µM
TGI (SF-295 CNS): > 29.3 µM
TGI (786-0 renal): > 45.1 µM
TGI (SR leukemia): > 100 µM
TGI (ACHN renal): 14 µM
TGI (KM20L2 colon): 25.1 µM
TGI (A549 NSCLC): > 72.1 µM
TGI (OVCAR-4 ovarian): > 100 µM
TGI (SNB-78 CNS): 3.82 µM
TGI (K-562 leukemia): > 40 µM
TGI (NCI-H460 lung): 7.17 µM
TGI (CCRF-CEM leukemia): 21.6 µM
TGI (MOLT-4 leukemia): > 56 µM
TGI (SW-620 colon): > 100 µM
TGI (M19-MEL melanoma): 23.4 µM
TGI (HL-60(TB) leukemia): 6.86 µM
TGI (DLD-1 colon): > 100 µM
TGI (EKVX NSCLC): > 33.3 µM
TGI (OVCAR-5 ovarian): > 100 µM
TGI (LXFL 529 NSCLC): > 47 µM
TGI (RPMI-8226 leukemia): 12.8 µM
TGI (SNB-19 CNS): > 27.9 µM
TGI (TK-10 renal): 42.2 µM
TGI (SK-MEL-2 melanoma): 13.6 µM
TGI (DMS 114 small cell lung): 10.9 µM
TGI (OVCAR-3 ovarian): 13.8 µM
TGI (KM12 colon): 52.9 µM
TGI (SK-MEL-28 melanoma): > 75.1 µM
TGI (LOX IMVI melanoma): 18.3 µM
TGI (UACC-257 melanoma): 47.5 µM
TGI (HOP-18 NSCLC): > 100 µM
TGI (UO-31 renal): 9.52 µM
TGI (HOP-92 NSCLC): 4.99 µM
TGI (NCI-H23 lung): 4.25 µM
TGI (SK-OV-3 ovarian): 46.7 µM
TGI (HT29 colon): > 61.7 µM
TGI (IGROV1 ovarian): > 100 µM
TGI (HOP-62 NSCLC): 11.3 µM
TGI (HCT-15 colon): > 29 µM
TGI (OVCAR-8 ovarian): 7.66 µM
TGI (NCI-H522 lung): 6.25 µM
TGI (SK-MEL-5 melanoma): 15.5 µM
TGI (SN12C renal): 7.85 µM
